# Data as given in patent US20110294726A1, “ANTIBIOTIC THERAPY TO REDUCE THE LIKELIHOOD OF DEVELOPING POST-INFECTIOUS IRRITABLE BOWEL SYNDROME” (CEDARS-SINAI MEDICAL CENTER, priority 2009, published 2011).
# Experiments:
# [1] = system: C. jejuni 81-176; assay: Tracking the acute colonization with C. jejuni in stool of gavaged rats; type: in vivo, Male Sprague-Dawley rats
# Method: Male Sprague-Dawley rats (n=108) (200g) were quarantined for 10 days. Subsequently, fresh stool was collected by stroking the anus. Stool was cultured for C. jejuni on Campylobacter agar (BD Diagnostics, Franklin Lakes, N.J.). This was conducted to confirm the absence of infection or colonization of animals with C. jejuni prior to starting the study. […] In the first group (n=54), the rats were gavaged with 1 mL of a 5% solution of bicarbonate. This was given to acutely reduce gastric acidity. Subsequently, the rats were gavaged with a 1 mL suspension of 10^8 cfu/mL C. jejuni 81-176 in Campylobacter broth (C+/R− group). In the second group (n=54), the rats were gavaged with a 1 mL solution of rifaximin (200 mg) (C+/R+ group). The following day, the C+/R+ group received 3 sequential gavages. The first was another 1 mL dose of rifaximin. One hour later, they were gavaged with a 1 mL solution of 5% bicarbonate followed by a third gavage consisting of a 1 mL suspension of 10^8 cfu/mL C. jejuni 81-176 in Campylobacter broth. The following day, the C+/R+ group received a third and final gavage of 200 mg of rifaximin. After completion of the gavage, fresh stool was collected daily from all rats (both groups) and cultured for the presence of C. jejuni on Campylobacter agar. The number of days to first detectable C. jejuni in stool was recorded. Once colonization was noted, daily stool was cultured until 2 consecutive days with no detectable C. jejuni was observed. This was recorded as the time to C. jejuni clearance. In the post-infectious phase, the time to initial colonization, time for clearance and total duration of shedding were determined and compared between the C+/R− and C+/R+ groups. This was compared by Wilcoxon rank-sum test.
# [2] = system: C. jejuni 81-176; assay: Determination of a post-infectious phenotype (stool form, % stool weight) 3 months after C. jejuni clearance; type: in vivo, Male Sprague-Dawley rats
# Method: Male Sprague-Dawley rats (n=108) (200g) were quarantined for 10 days. Subsequently, fresh stool was collected by stroking the anus. Stool was cultured for C. jejuni on Campylobacter agar (BD Diagnostics, Franklin Lakes, N.J.). This was conducted to confirm the absence of infection or colonization of animals with C. jejuni prior to starting the study. […] In the first group (n=54), the rats were gavaged with 1 mL of a 5% solution of bicarbonate. This was given to acutely reduce gastric acidity. Subsequently, the rats were gavaged with a 1 mL suspension of 10^8 cfu/mL C. jejuni 81-176 in Campylobacter broth (C+/R− group). In the second group (n=54), the rats were gavaged with a 1 mL solution of rifaximin (200 mg) (C+/R+ group). The following day, the C+/R+ group received 3 sequential gavages. The first was another 1 mL dose of rifaximin. One hour later, they were gavaged with a 1 mL solution of 5% bicarbonate followed by a third gavage consisting of a 1 mL suspension of 10^8 cfu/mL C. jejuni 81-176 in Campylobacter broth. The following day, the C+/R+ group received a third and final gavage of 200 mg of rifaximin. After C. jejuni clearance was determined, the rats were housed for an additional 3 months (90 days). At 90 days, fresh stool was collected for 3 consecutive days. The stool was graded for consistency. To do this, a modified Bristol-like stool score was used. In this score, stool was graded as normal (1), soft and poorly formed (2), or watery (3). The stool was then weighed and air dried for 5 days followed by oven drying at 160° C. for 1 hour. The stool was reweighed and a % stool wet weight was determined. After completion of the study, the rats were euthanized by CO2 asphyxiation, weighed, and a laparotomy was performed. During the laparotomy, predefined segments of duodenum, jejunum, ileum, left colon, and rectum were resected, as previously described (12). Subsequently, the contents of each segment were cultured for the presence of C. jejuni. At the end of 3 months, the stool form for 3 days was averaged and then the two groups were compared. In another analysis, the number of days with normal stool in 3 days was determined and compared between groups. Finally, the variance in stool form over 3 days was also determined and compared between groups. The comparison was done by Wilcoxon rank-sum test.
# [3] = system: Shigella; settings: humans, recent study (16); cited from earlier work
structure (smiles),measurement,setting,value
CO[C@H]1/C=C/O[C@@]2(C)Oc3c(C)c(O)c4c(O)c(c5c(nc6cc(C)ccn65)c4c3C2=O)NC(=O)/C(C)=C\C=C\[C@H](C)[C@H](O)[C@@H](C)[C@@H](O)[C@@H](C)[C@H](OC(C)=O)[C@@H]1C [rifaximin],Longest colonization,[1]; C+/R+ group,21 days
same,Rats with at least one day of detectable C. jejuni in stool (percent),"[1]; C+/R+ group of 54 rats, P=0.016 vs C+/R−",98%
same,Rats with at least one day of detectable C. jejuni in stool (number),"[1]; of 54 rats in the C+/R+ group, P=0.016 vs C+/R−",53 rats
same,Detection of C. jejuni in stool in the acute phase (in words),"[1]; rifaximin prophylaxis, rats",did not prevent C. jejuni from being detected in stool
same,Time to first detectable C. jejuni,"[1]; stool culture, number of days after gavage, rifaximin 200 mg gavage on 3 days around inoculation, P<0.0001 vs C+/R−",1.3 ± 0.4
same,Average % of stool dry weight,"[2]; 3 months after clearance, 3 day average, P NS",61.1 +/− 3.8%
same,Daily variability of Dry Weight,"[2]; 3 months after clearance, over 3 days, P<0.01",4.1 +/− 2.3
same,"Number of bowel movements normal in form out of 3 days (FIG. 2, in words)","[2]; C+/R+ versus C+/R−, 3 months after clearance",closer to having perfectly normal bowel function
same,Daily Variability of Stool Consistency,"[2]; over 3 days, 3 months after clearance, P<0.01",.24 +/− 0.5
same,Long term effects of C. jejuni on the bowel (in words),"[2]; rifaximin prophylaxis, stool form and % wet weight",reduced the long term effects of C. jejuni on the bowel
same,Average Stool Consistency (Based on Bristol Stool Scale),"[2]; score 1 normal, 2 soft and poorly formed, 3 watery, 3 day average, 3 months after clearance, P<0.00001",1.1 +/− 0.3
same,Prevention of illness by prophylaxis of a Shigella infection (in words),[3],able to prevent illness
